Test results published in EP0052564A1, “Derivatives of 2-thiazolyl-oxamic acid substituted in position 4 by a thienyl or furyl radical, their preparation and use as pharmaceutical preparations” (PIERRE FABRE S.A., priority 1980, dated 1982).

Assay: Solubility (in water, ethanol, methyl pyrrolidone)
Assay type: physicochemical
Conditions: for Solubilités : dans l'éthanol: ethanol; for Solubilités : dans la méthyl pyrrolidone: methyl pyrrolidone; for Solubilités : dans l'eau: water

Solubilités : dans l'éthanol | Solubilités : dans la méthyl pyrrolidone | Solubilités : dans l'eau | Compound
1% | 50% | insoluble | CCOC(=O)C(=O)Nc1nc(-c2cccs2)cs1 [Exemple 1, (α thienyl-4 thiazolyl-2) oxamate d'éthyle]
– | 50% | insoluble | O=C(O)C(=O)Nc1nc(-c2cccs2)cs1 [Exemple 2, Acide (α thienyl-4 thiazolyl-2) oxamique]
– | 15% | insoluble | O=C(O)C(=O)Nc1nc(-c2cccs2)cs1 [Exemple 3, (α thienyl-4 thiazolyl-2) oxamate de sodium]
– | 50% | insoluble | CCOC(=O)C(=O)Nc1nc(-c2ccsc2)cs1 [Exemple 6, ( β thienyl-4 thiazolyl-2) oxamate d'éthyle]
3% | 50% | insoluble | CCOC(=O)C(=O)Nc1nc(-c2ccco2)cs1 [Exemple 7, (α furyl-4 thiazolyl-2) oxamate d'éthyle]
– | 25% | insoluble | O=C(O)C(=O)Nc1nc(-c2ccco2)cs1 [Exemple 8, Acide (α furyl-4 thiazolyl-2) oxamique]
– | 15% | insoluble | (α thienyl-4 thiazolyl-2) oxamate d'éthanolamine [Exemple 5]
– | 50% | insoluble | (α thienyl-4 thiazolyl-2) oxamate de zinc [Exemple 4]
